Patent US20190144368A1, “Compounds and compositions for biofilm prevention” (INHIBIO AS, priority 2016, published 2019)

What was measured:
[1] = tested on: Gram negative bacteria (Salmonella isolates); test: Biofilm formation in polystyrene microtiter plates (crystal violet, OD595), Gram negative bacteria; format: cell-based, Salmonella ser. Typhimurium, Salmonella ser. Agona; details: two days at 20 °C
Experimental: (§1) All experiments were performed by using sterile 96-wells polystyrene microtiter plates (Nunc, Nuncleon, Roskilde, Denmark) under conditions promoting biofilm formation by the different bacterial genera. The Inhibio compound preparations of the invention; 1,3-cyclohexanedione, 1,4-cyclohexanedione, cyclopentanone, 5-ethylcyclohexane-1,3-dione and 5-methyl-1,3 cyclohexanedione 98% were solved directly in Tryptic Soy Broth (TSB) 1+1 or Liquid Microbiology Broth (LB) broth without NaCl (LB^wo/NaCl) to obtain the test concentrations, i.e. from 1 mg/ml to 10 mg/ml.
One Salmonella ser. Typhimurium (S. Typhimurium), two Salmonella ser. Agona (S. Agona) and two Escherichia coli (E. coli) isolates were used in these studies. The studies performed using 1,3-cyclohexanedione and 1,4-cyclohexanedione were done on Salmonella isolates only. The studies comparing Menthone to 1,3-cyclohexanedione were using two E. coli strains, E. coli 1242 and E. coli 1153, see FIG. 11. The Salmonella isolates were isolated from Norwegian feed factories except one S. Typhimurium strain which was a culture collection strain (ATCC 14028). The E. coli isolates were of animal origin. All strains were stored at −80° C. in BHI supplemented with 15% glycerine and were recovered on blood agar at 37.0±1.0° C. The bacterial cultures were then transferred into LB broth and incubated statically overnight at 37.0±1.0° C. to obtain an overnight working culture. A total of 30 μl of this suspension was transferred to each well in 96 wells polystyrene microtiter plates (Nunc, Nuncleon, Roskilde, Denmark) in triplets. The wells were containing 100 μl LB^wo/NaCl (bacto-tryptone 10 g/l, yeast extract 5 g/l) with 1,3-cyclohexanedione dissolved in concentration 0 mg/ml, 1 mg/ml and 10 mg/ml in the total amount of broth and 1,4-cyclohexanedione and cyclopentanone at 0 mg/ml and 10 mg/ml. The microtiter plates were incubated statically for two days, at 20±1.0° C. After incubation, OD595 was measured before the plates were gently washed one time with 150 μl tap water. The plates were dried in room temperature before addition of 140 μl 1% crystal violet (Sigma-Aldrich). After 30 minutes incubation in room temperature, the plates were washed three times with tap water before addition of 140 μl ethanol:acetone (70:30 w:w) and incubated for another 10 minutes in room temperature. OD595 was measured in a microplate photometer (Multiscan EX) after the bound dye was dissolved using ethanol:acetone. For each strain, the result was calculated by subtracting the median OD595 of the three parallels of the control (test broth only) from the median OD595 of the three parallels of sample. Further, the averages of the Gram negative strains were calculated. Three independent experiments were performed and the average was evaluated.

Salmonella (one strain) = test: Effect of increased temperature on 1,3-cyclohexanedione: biofilm formation after heating the solution; format: cell-based; details: 72 hours at 20 °C
Experimental: The experiment was performed using 1,3-cyclohexanedione at a concentration of 1 mg/ml. One strain of Salmonella was used in this study. All strains were stored at −80° C. in BHI (Difco, BD, Franklin Lakes, N.J., USA) supplemented […] with 15% glycerine (Merck KGaA, Darmstadt, Germany) and were recovered on blood agar at 37.0±1.0° C. The bacterial culture was transferred into LB broth and was incubated statically overnight at 37.0±1.0° C. to obtain an overnight working culture. 1,3-cyclohexanedione was diluted in LB wo/NaCl at a concentration of 1 mg/ml and divided into 4 tubes. The tubes were heated, for two minutes, to 80° C., 90° C., 100° C. and the last tube was not heated and included as a control. 100 μl from each tube was added to a sterile 96-wells polystyrene microtiter plates (Nunc, Nuncleon, Roskilde, Denmark) together with 30 μl bacterial culture or 30 μl LB^wo/NaCl in the case of the blank controls. The plates were incubated for 72 hours at 20° C. The plate was emptied and washed twice using 200 μl tap water in each well each time. This was followed by the addition of 140 μl 1% Crystal violet to each well and, after 30 minutes, the plate was again emptied and washed 3 times using 200 μl tap water. 140 μl etanol:acetone 70:30 was added and OD595 was measured after 10 minutes. For each strain, the result was calculated by subtracting the median OD595 of the three parallels of the control (test broth only) from the median OD595 of the three parallels of sample. At least two experiments were performed and the average was estimated.

[2] = tested on: Gram positive bacteria (three Staphylococcus aureus strains); test: Biofilm formation in polystyrene microtiter plates (crystal violet, OD595), Gram positive bacteria; format: cell-based; details: one day at 37 °C
Experimental: as §1
Three Staphylococcus aureus strains of animal origin were used in this study. All strains were stored at −80° C. in Brain Heart Infusion Broth (BHI) (Difco, BD, Franklin Lakes, N.J., USA) supplemented with 15% glycerine (Merck KGaA, Darmstadt, Germany) and were recovered on blood agar at 37.0±1.0° C. The bacterial cultures were then transferred into TSB and were incubated statically overnight at 37.0±1.0° C. to obtain an overnight working culture. A total of 2 μl of this suspension was transferred to each 96 wells of polystyrene microtiter plates (Nunc, Nuncleon, Roskilde, Denmark) containing 198 μl TSB 1+1 with dissolved Inhibio compounds in the following concentrations: 0 mg/ml, 1 mg/ml and 10 mg/ml for 1,3-cyclohexanedione; 0 mg/ml and 10 mg/ml for 1,4-cyclohexanedione; and 0 mg/ml, 1 mg/ml, 2 mg/ml and 10 mg/ml for 5-ethylcyclohexane-1,3-dione and 5-Methyl-1,3-cyclohexanedione in the total amount of broth. Three parallels of each strain were used and the microtiter plates were incubated statically for one day, at 37±1.0° C. After incubation, OD595 was measured in a microplate photometer (Multiscan EX; Thermo Fisher Scientific Inc, Waltham, Mass., USA) before the plates were gently washed three times with 290 μl tap water. The plates were dried in room temperature before addition of 220 μl 1% crystal violet (Sigma-Aldrich, St. Louis, Mo., USA). After 30 minutes incubation in room temperature, the plates were washed three times with tap water before the addition of 220 μl ethanol:acetone (70:30 w:w) to dissolve the bound dye. The plates were incubated for 10 minutes in room temperature before OD595 was measured after the bound dye was dissolved using ethanol:acetone. For each strain, the result was calculated by subtracting the median OD595 of the three parallels of the control (test broth only) from the median OD595 of the three parallels of sample. Further, the average result of all three Gram positive strains included in the study were calculated. Three independent experiments were performed and the average was evaluated.

O=C1CCCC(=O)C1 [1,3-cyclohexanedione]
decrease in biofilm formation, percentage of the control ([1]; 1 mg/ml): 70%
decrease in biofilm formation, percentage of the control ([1]; 10 mg/ml): 87%
decrease in biofilm formation compared to the control (Salmonella (one strain); 1 mg/ml solution heated to 80 °C for two minutes): 38%
decrease in biofilm formation compared to the control (Salmonella (one strain); 1 mg/ml solution heated to 90 °C for two minutes): 40%
decrease in biofilm formation compared to the control (Salmonella (one strain); 1 mg/ml solution heated to 100 °C for two minutes): 28%
decrease in biofilm formation compared to the control (Salmonella (one strain); 1 mg/ml unheated solution): 46%
decrease in biofilm formation, percentage of the control ([2]; 1 mg/ml): 74%
decrease in biofilm formation, percentage of the control ([2]; 10 mg/ml): 98%
